According to publication PMC12000511, “Molecular basis for the assembly of the Vps5-Vps17 SNX-BAR proteins with Retromer” (Nature Communications, 2025):
Where no end group is shown, it is not given here.

Assays:
[1] = target: T1, mVps29 (Mus musculus, UniProt Q9QZ88); test: Crystal structure of mVPS29–ctVps5_71–80 peptide complex; settings: 1.7 Å, two molecules in asymmetric unit
T1 construct: GST (thrombin site) (N, cleaved yes); made in house; host or cells: E. coli BL21(DE3)
Experimental: All crystals were grown by the hanging-drop vapor diffusion method at 20 °C. […] Best quality crystals were obtained by mixing 1 µL of protein with 1 µL of well solution containing 40 mM KH2PO4, 16% PEG8000 and 5% glycerol at room temperature. Crystals grew after 13 days were cryoprotected in reservoir solution with additional 16% glycerol. X-ray diffraction data were carried out at the Australian Synchrotron MX2 beamline at 100 K.
Data collected from the Australian Synchrotron were indexed and integrated by AutoXDS and scaled using Aimless (version 0.7.4)[75]. Both structures were solved by molecular replacement using Phaser (version 2.5.6)[76] with native mVps29 structure as the initial model template. Both structures contain two copies of mVps29 in asymmetric unit with the electron density of peptide clearly visible. The refinement was performed using Phenix (version 1.19.2) with inspection of resulting model in Coot (version 0.8.9.2) guided by Fo–Fc difference maps[77]. Molprobity was used to evaluate the quality geometry of the refined structure. Molecular figures were generated using PyMOL (version 2.5.5) and structural comparison was performed using DALI and Foldseek[79],[80]. Sequence conservation was mapped on the structure with ConSurf server.

[2] = target: ctRetromer (Thermochaetoides thermophila, UniProt G0RZB5+G0S709); test: ITC, binding to ctRetromer; design: species or system Chaetomium thermophilum; settings: ITC 25 °C, pH 7.5, 200 mM NaCl
ctRetromer, sequence (G0RZB5 entry or part of it): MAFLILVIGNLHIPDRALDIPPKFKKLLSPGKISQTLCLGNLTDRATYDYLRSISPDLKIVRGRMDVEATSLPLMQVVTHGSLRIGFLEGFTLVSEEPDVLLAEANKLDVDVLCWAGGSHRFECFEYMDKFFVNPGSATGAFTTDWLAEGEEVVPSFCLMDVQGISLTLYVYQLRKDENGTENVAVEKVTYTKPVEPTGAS
ctRetromer, sequence (G0S709 entry or part of it): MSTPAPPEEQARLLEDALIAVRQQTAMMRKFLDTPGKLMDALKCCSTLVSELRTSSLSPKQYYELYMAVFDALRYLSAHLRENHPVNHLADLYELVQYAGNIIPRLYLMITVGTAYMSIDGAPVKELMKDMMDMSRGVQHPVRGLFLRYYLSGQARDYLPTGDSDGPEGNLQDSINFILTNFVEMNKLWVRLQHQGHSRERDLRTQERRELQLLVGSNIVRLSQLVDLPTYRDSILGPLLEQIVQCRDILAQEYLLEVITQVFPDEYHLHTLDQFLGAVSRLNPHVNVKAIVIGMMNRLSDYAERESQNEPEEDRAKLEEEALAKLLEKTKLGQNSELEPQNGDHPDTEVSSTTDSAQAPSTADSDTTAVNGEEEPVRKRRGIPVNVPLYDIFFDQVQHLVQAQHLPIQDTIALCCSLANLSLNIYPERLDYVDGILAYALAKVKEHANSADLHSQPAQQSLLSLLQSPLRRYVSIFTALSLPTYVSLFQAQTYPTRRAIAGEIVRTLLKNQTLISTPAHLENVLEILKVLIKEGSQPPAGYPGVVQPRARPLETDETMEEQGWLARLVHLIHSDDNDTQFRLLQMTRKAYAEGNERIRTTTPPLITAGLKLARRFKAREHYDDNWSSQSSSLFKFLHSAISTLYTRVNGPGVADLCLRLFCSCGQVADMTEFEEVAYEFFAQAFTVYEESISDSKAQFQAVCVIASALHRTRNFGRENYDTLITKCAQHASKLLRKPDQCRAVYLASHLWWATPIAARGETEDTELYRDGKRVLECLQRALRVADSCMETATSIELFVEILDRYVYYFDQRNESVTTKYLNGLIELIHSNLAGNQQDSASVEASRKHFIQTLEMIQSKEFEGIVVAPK
ctRetromer, sequence (G0S0E6 entry or part of it, further chain): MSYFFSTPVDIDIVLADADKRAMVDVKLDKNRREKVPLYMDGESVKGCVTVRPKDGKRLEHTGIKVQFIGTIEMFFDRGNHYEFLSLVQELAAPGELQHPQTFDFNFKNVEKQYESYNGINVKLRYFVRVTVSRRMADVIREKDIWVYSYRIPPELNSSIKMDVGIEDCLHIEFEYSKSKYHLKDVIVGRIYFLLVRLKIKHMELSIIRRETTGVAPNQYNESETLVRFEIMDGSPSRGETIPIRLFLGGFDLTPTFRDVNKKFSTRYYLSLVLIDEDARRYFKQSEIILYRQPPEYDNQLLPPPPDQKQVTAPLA
Experimental: (§1) All the bacterial constructs were expressed in BL21(DE3) competent cells using standard isopropyl 1-thio-β-D-galactopyranoside induction or autoinduction method as described previously[39],[72],[73]. To obtain the Retromer trimer complex, the GST-tagged Vps29 and Vps35 co-expressed cell pellet were mixed with His-Vps26 and resuspended in lysis buffer containing 50 mM Tris-HCl pH 7.5, 200 mM NaCl, 5% glycerol, 50 μg/ml benzamidine and DNase I before passed through a Constant System TS-Series cell disruptor. […] For all constructs, the lysate was clarified by centrifugation and the supernatant was loaded onto either Talon® resin (Clonetech) or glutathione sepharose (GE healthcare) for initial purification. To obtain the correct stoichiometry ratio of the Retromer complex, both Talon® resin and glutathione sepharose (GE healthcare) were applied. […] The flow-through containing complex was further purified using size-exclusion chromatography (SEC) equilibrated with a buffer containing 50 mM Tris-HCl pH 7.5, 200 mM NaCl, 2 mM β-ME. […] To avoid the non-specific cleavage by the residual proteases such as thrombin, a tablet of protease inhibitor cocktail was added into the complex mixture. To remove the unbound fractions, the complex mixture was further purified using Superose 6 increase 10/300 GL column using the SEC buffer described above.
In brief, the clarified lysate was loaded onto glutathione sepharose (GE healthcare) and eluted using elution buffer containing 50 mM Tris-HCl pH 7.5, 200 mM NaCl, 5% glycerol, 20 mM glutathione reduced and 50 μg/ml benzamidine. The flow-through was further purified using SEC as the final purification step. To avoid the degradation, the constructs containing N-terminal disordered parts of Vps5 and Vps17 were used in fresh and experiments were finished within 3 days after purification.
(§2) All the proteins used for ITC experiments were prepared in buffer containing 50 mM Tris-HCl pH 7.5, 200 mM NaCl, 2 mM β-ME. […] In all cases, the ITC titration sequence consisted of an initial 0.4 μl (not used in data processing) followed by 12 serial injections of 3.22 μl each with 180 s intervals. The resulting titration data were integrated with Malvern software package by fitting and normalized data to a single-site binding model, yielding the thermodynamic parameters Kd, ∆H, ∆G and −T∆S for all binding experiments. The stoichiometry was refined initially, and if the value was close to 1, then N was set to exactly 1.0 for calculation. Data presented are the mean of triplicate titrations for each experiment.

[3] = target: T1, mVps29; test: ITC, binding to mVps29; settings: ITC 25 °C, pH 7.5; mean of triplicate titrations
Experimental: as §1, §2

Sequence: DDPLGPLGA [ctVps5_71–80 peptide]
- binding site on VPS29 [1]: binds to the conserved hydrophobic groove of VPS29
- binding to ctRetromer [2]: very weak binding
- ΔG [3]: -5.80 ± 0.10 kcal/mol
- ΔH [3]: -8.00 ± 1.10 kcal/mol
